Laboratory results from patent US20070128217A1 (priority 2003, published 2007).

How the values were obtained:
[1] = system: rabbit serum obtained by immunizing a rabbit with the SARS-CoV strain Frankfurt 1; format: binding; set-up: Binding of a rabbit serum to linear peptides / Binding of a rabbit serum to looped peptides / Rabbit serum linear peptides / Rabbit serum looped peptides / Binding of a rabbit serum to linear peptides of protein N of SARS-CoV Urbani (Rabbit serum linear peptides) / Binding of a rabbit serum to looped/cyclic peptides of protein N of SARS-CoV Urbani (Rabbit serum looped peptides): unit not given here
[2] = system: control sera (pooled serum of ten healthy LUMC hospital workers; commercial negative donor pooled serum from the Dutch bloodbank); format: binding, human; set-up: Binding of Control serum LUMC to linear peptides / Binding of Control serum Blood-bank to linear peptides / Binding of Control serum LUMC to looped peptides / Binding of Control Serum Blood-Bank to Looped peptides / Binding of Control serum LUMC to linear peptides of the protein M of SARS-CoV Urbani / Binding of Control serum Blood-bank to linear peptides of the protein M of SARS-CoV Urbani / Binding of Control serum LUMC to looped peptides of the protein M of SARS-CoV Urbani / Binding of Control Serum Blood-Bank to Looped peptides of the protein M of SARS-CoV Urbani: unit not given here
[3] = system: recombinant human anti-SARS-CoV antibody 03-018; format: binding; set-up: Binding of antibody 03-018 to linear peptides of the N protein of SARS-CoV Urbani / Binding of antibody 03-018 to looped/cyclic peptides of the N protein of SARS-CoV Urbani: unit not given here
[4] = system: antibodies in sera from SARS patients (sera 1a, 1b, 2, 6, 37, 62, London, SARS-yellow, SARS-green); format: binding, human; set-up: Binding of serum 6 to linear peptides of protein X1 of SARS-CoV Urbani / Binding of serum 37 to linear peptides of protein X1 of SARS-CoV Urbani / Binding of serum 6 to looped/cyclic peptide (PEPSCAN-ELISA) / Binding of serum 37 to looped/cyclic peptide (PEPSCAN-ELISA) / Binding of serum 37 to looped/cyclic peptides of protein X1 of SARS-CoV Urbani / Binding of serum 6 to linear peptides of protein X2 / Binding of serum 37 to linear peptides of protein X2 / Binding of serum 37 to looped/cyclic peptides of protein X2 of SARS-CoV Urbani / Binding of serum 6 to linear peptides of protein M of SARS-CoV Urbani / Binding of serum 37 to linear peptides of protein M of SARS-CoV Urbani / Binding of serum 6 to looped/cyclic peptides of protein M of SARS-CoV Urbani / Binding of serum 37 to looped/cyclic peptides of protein M of SARS-CoV Urbani / Binding of serum 6 to linear peptides of protein X3 of SARS-CoV Urbani / Binding of serum 37 to linear peptides of protein X3 of SARS-CoV Urbani / Binding of serum 37 to looped/cyclic peptides of protein X3 of SARS-CoV Urbani / Binding of serum 6 to linear peptides of protein X4 of SARS-CoV Urbani / Binding of serum 37 to linear peptides of protein X4 of SARS-CoV Urbani / Binding of serum 37 to looped/cyclic peptides of protein X4 of SARS-CoV Urbani / Binding of serum 6 to linear peptides of protein X5 of SARS-CoV Urbani / Binding of serum 37 to linear peptides of protein X5 of SARS-CoV Urbani / Binding of serum 37 to looped/cyclic peptides of protein X5 of SARS-CoV Urbani / Binding of serum 6 to linear peptides of protein N of SARS-CoV Urbani / Binding of serum 37 to linear peptides of protein N of SARS-CoV Urbani / Binding of serum 6 to linear peptide (PEPSCAN-ELISA) / Binding of serum 1a to looped/cyclic peptides of protein N of SARS-CoV Urbani / Binding of serum 1b to looped/cyclic peptides of protein N of SARS-CoV Urbani / Binding of serum 2 to looped/cyclic peptides of protein N of SARS-CoV Urbani / Binding of serum 6 to looped/cyclic peptides of protein N of SARS-CoV Urbani / Binding of serum 37 to looped/cyclic peptides of protein N of SARS-CoV Urbani / Binding of serum 62 to looped/cyclic peptides of protein N of SARS-CoV Urbani / Binding of serum London to looped/cyclic peptides of protein N of SARS-CoV Urbani / Binding of serum SARS-green to looped/cyclic peptides of protein N of SARS-CoV Urbani: unit not given here

Sequence	Binding of antibody 03-018 to linear peptides of the N protein of SARS-CoV Urbani [3]	Binding of antibody 03-018 to looped/cyclic peptides of the N protein of SARS-CoV Urbani [3]	Binding of serum 1a to linear peptides of protein N of SARS-CoV Urbani [4]	Binding of serum 1a to looped/cyclic peptides of protein N of SARS-CoV Urbani [4]	Binding of serum 1b to linear peptides of protein N of SARS-CoV Urbani [4]	Binding of serum 1b to looped/cyclic peptides of protein N of SARS-CoV Urbani [4]	Binding of serum 2 to linear peptides of protein N of SARS-CoV Urbani [4]	Binding of serum 2 to looped/cyclic peptides of protein N of SARS-CoV Urbani [4]	Binding of serum 6 to linear peptides of protein N of SARS-CoV Urbani [4]	Binding of serum 6 to looped/cyclic peptides of protein N of SARS-CoV Urbani [4]	Binding of serum 37 to linear peptides of protein N of SARS-CoV Urbani [4]	Binding of serum 37 to looped/cyclic peptides of protein N of SARS-CoV Urbani [4]	Binding of serum 62 to linear peptides of protein N of SARS-CoV Urbani [4]	Binding of serum 62 to looped/cyclic peptides of protein N of SARS-CoV Urbani [4]	Binding of serum London to linear peptides of protein N of SARS-CoV Urbani [4]	Binding of serum London to looped/cyclic peptides of protein N of SARS-CoV Urbani [4]	Binding of serum SARS-green to linear peptides of protein N of SARS-CoV Urbani [4]	Binding of serum SARS-green to looped/cyclic peptides of protein N of SARS-CoV Urbani [4]	Binding of serum SARS-yellow to linear peptides of protein N of SARS-CoV Urbani [4]	Binding of serum SARS-yellow to looped/cyclic peptides of protein N of SARS-CoV Urbani [4]	further results
DLIRQGTDYKHWPQI	0.1	0.2	0.2	0.4	0.1	0.2	0.2	0.4	0.2	0.2	0.6	0.6	0.6	0.6	0.9	0.4	0.4	0.2	0.6	0.3	Binding of a rabbit serum to linear peptides of protein N of SARS-CoV Urbani (Rabbit serum linear peptides) [1]: 0.0; Binding of a rabbit serum to looped/cyclic peptides of protein N of SARS-CoV Urbani (Rabbit serum looped peptides) [1]: 0.5; Binding of Control Serum Blood-Bank to Looped peptides [2]: 0.5; Binding of Control serum Blood-bank to linear peptides [2]: 0.6; Binding of Control serum LUMC to linear peptides [2]: 0.5; Binding of Control serum LUMC to looped peptides [2]: 0.5
DNNQNGGRNGARPKQ	0.2	0.3	0.2	0.4	0.1	0.2	0.3	0.4	0.1	0.3	0.6	0.6	0.7	0.4	0.5	0.4	0.6	0.4	0.6	0.4	Binding of a rabbit serum to linear peptides of protein N of SARS-CoV Urbani (Rabbit serum linear peptides) [1]: 0.1; Binding of a rabbit serum to looped/cyclic peptides of protein N of SARS-CoV Urbani (Rabbit serum looped peptides) [1]: 0.4; Binding of Control Serum Blood-Bank to Looped peptides [2]: 0.7; Binding of Control serum Blood-bank to linear peptides [2]: 0.8; Binding of Control serum LUMC to linear peptides [2]: 0.6; Binding of Control serum LUMC to looped peptides [2]: 0.6
DNVILLNKHIDAYKT	0.1	0.2	0.2	0.4	0.1	0.3	0.2	0.4	0.1	0.2	0.6	0.7	0.6	0.7	0.5	0.5	0.2	0.3	0.6	0.8	Binding of a rabbit serum to linear peptides of protein N of SARS-CoV Urbani (Rabbit serum linear peptides) [1]: 0.1; Binding of a rabbit serum to looped/cyclic peptides of protein N of SARS-CoV Urbani (Rabbit serum looped peptides) [1]: 0.6; Control Serum Blood-Bank Looped peptides [2]: 0.7; Control serum Blood-bank linear peptides [2]: 0.5; Control serum LUMC linear peptides [2]: 0.6; Control serum LUMC looped peptides [2]: 0.7
DQIGYYRRATRRVRG	0.1	0.3	0.2	0.3	0.1	0.2	0.3	0.5	0.2	0.3	0.7	0.9	0.6	0.8	0.5	0.5	0.4	0.6	0.6	0.7	Recognition of the peptide by the rabbit serum [1]: recognized; Binding of Control Serum Blood-Bank to Looped peptides [2]: 0.8; Binding of Control serum Blood-bank to linear peptides [2]: 0.8; Binding of Control serum LUMC to linear peptides [2]: 0.7; Binding of Control serum LUMC to looped peptides [2]: 0.7
